Paper PMC6600388 (2019)
Where two headings read alike, the source gives them in different places. Residues, ends and D or L forms follow the SMILES beside them.

System: human red blood cells
Conditions: red cells of human

## CC[C@H](C)[C@H](NC(=O)[C@H](CC(C)C)NC(=O)[C@H](CCC(=O)O)NC(=O)[C@H](CCC(=O)O)NC(=O)[C@@H](NC(=O)[C@H](CCC(=O)O)NC(=O)[C@H](CCC(=O)O)NC(=O)[C@H](Cc1ccccc1)NC(=O)[C@H](CC(C)C)NC(=O)CNC(=O)[C@@H](N)CS)[C@@H](C)CC)C(=O)N[C@@H](CCC(=O)O)C(=O)N[C@@H](CCC(=O)O)C(=O)NCC(=O)N[C@@H](CC(C)C)C(=O)N[C@@H](CCCCN)C(=O)N[C@@H](CC(N)=O)C(=O)N[C@@H](CC(C)C)C(=O)N[C@H](C(=O)N[C@@H](CC(=O)O)C(=O)N[C@@H](Cc1c[nH]c2ccccc12)C(=O)N[C@@H](Cc1c[nH]c2ccccc12)C(=O)N[C@@H](Cc1ccc(O)cc1)C(=O)NCC(=O)N[C@@H](Cc1ccc(O)cc1)C(=O)NCC(=O)N[C@@H](Cc1c[nH]cn1)C(=O)N[C@@H](CCCCN)C(=O)N[C@@H](CCCCN)C(=O)N[C@@H](Cc1c[nH]cn1)C(=O)N[C@@H](Cc1c[nH]cn1)C(=O)N[C@@H](CCC(N)=O)C(=O)N[C@@H](Cc1c[nH]cn1)C(=O)N[C@@H](CCCNC(=N)N)C(N)=O)[C@@H](C)CC [Peptide 70] (H-CGLFEEIEELIEEGLKNLIDWWYGYGHKKHHQHR-NH2)
pH 5.5
  IC50: 2.28 µM
pH 7.4
  IC50: > 20 µM

## CC[C@H](C)[C@H](NC(=O)[C@H](CC(C)C)NC(=O)[C@H](CCC(=O)O)NC(=O)[C@H](CCC(=O)O)NC(=O)[C@@H](NC(=O)[C@H](CCC(=O)O)NC(=O)[C@H](CCC(=O)O)NC(=O)[C@H](Cc1ccccc1)NC(=O)[C@H](CC(C)C)NC(=O)CNC(=O)[C@@H](N)CS)[C@@H](C)CC)C(=O)N[C@@H](CCC(=O)O)C(=O)N[C@@H](CCC(=O)O)C(=O)NCC(=O)N[C@@H](CC(C)C)C(=O)N[C@@H](CCC(=O)O)C(=O)N[C@@H](CC(N)=O)C(=O)N[C@@H](CC(C)C)C(=O)N[C@H](C(=O)N[C@@H](CC(=O)O)C(=O)N[C@@H](Cc1c[nH]c2ccccc12)C(=O)N[C@@H](Cc1c[nH]c2ccccc12)C(=O)N[C@@H](Cc1ccc(O)cc1)C(=O)NCC(=O)N[C@@H](Cc1ccc(O)cc1)C(=O)NCC(=O)N[C@@H](CCCNC(=N)N)C(=O)N[C@@H](CCCCN)C(=O)N[C@@H](CCCCN)C(=O)N[C@@H](CCCNC(=N)N)C(=O)N[C@@H](CCCNC(=N)N)C(=O)N[C@@H](CCC(N)=O)C(=O)N[C@@H](CCCNC(=N)N)C(=O)N[C@@H](CCCNC(=N)N)C(N)=O)[C@@H](C)CC [Peptide 68] (H-CGLFEEIEELIEEGLENLIDWWYGYGRKKRRQRR-NH2)
pH 5.5
  IC50: 4.11 µM
pH 7.4
  IC50: > 20 µM

## CC[C@H](C)[C@H](NC(=O)[C@H](CCC(=O)O)NC(=O)CNC(=O)[C@H](Cc1ccccc1)NC(=O)[C@H](CC(C)C)NC(=O)CNC(=O)[C@@H](N)CS)C(=O)N[C@@H](CCC(=O)O)C(=O)N[C@@H](CCC(=O)O)C(=O)N[C@@H](CC(C)C)C(=O)N[C@H](C(=O)N[C@@H](CCC(=O)O)C(=O)N[C@@H](CCC(=O)O)C(=O)NCC(=O)N[C@@H](CC(C)C)C(=O)N[C@@H](CCC(=O)O)C(=O)N[C@@H](CC(N)=O)C(=O)N[C@@H](CC(C)C)C(=O)N[C@H](C(=O)N[C@@H](CC(=O)O)C(=O)N[C@@H](Cc1c[nH]c2ccccc12)C(=O)N[C@@H](Cc1c[nH]c2ccccc12)C(=O)N[C@@H](Cc1ccc(O)cc1)C(=O)NCC(=O)N[C@@H](Cc1ccc(O)cc1)C(=O)NCC(=O)N[C@@H](Cc1c[nH]cn1)C(=O)N[C@@H](CCCCN)C(=O)N[C@@H](CCCCN)C(=O)N[C@@H](Cc1c[nH]cn1)C(=O)N[C@@H](Cc1c[nH]cn1)C(=O)N[C@@H](CCC(N)=O)C(=O)N[C@@H](Cc1c[nH]cn1)C(=O)N[C@@H](CCCNC(=N)N)C(N)=O)[C@@H](C)CC)[C@@H](C)CC [Peptide 64] (H-CGLFGEIEELIEEGLENLIDWWYGYGHKKHHQHR-NH2)
pH 5.5
  IC50: 3.91 µM
pH 7.4
  IC50: > 20 µM

## CC[C@H](C)[C@H](NC(=O)[C@H](C)NC(=O)[C@H](CCC(=O)O)NC(=O)[C@H](Cc1ccccc1)NC(=O)[C@H](CC(C)C)NC(=O)CNC(=O)[C@@H](N)CS)C(=O)N[C@@H](C)C(=O)NCC(=O)N[C@@H](Cc1ccccc1)C(=O)N[C@H](C(=O)N[C@@H](CCC(=O)O)C(=O)N[C@@H](CC(N)=O)C(=O)NCC(=O)N[C@@H](Cc1c[nH]c2ccccc12)C(=O)N[C@@H](CCC(=O)O)C(=O)NCC(=O)N[C@@H](CCSC)C(=O)N[C@H](C(=O)N[C@@H](CC(=O)O)C(=O)NCC(=O)N[C@@H](Cc1c[nH]c2ccccc12)C(=O)N[C@@H](Cc1ccc(O)cc1)C(=O)NCC(N)=O)[C@@H](C)CC)[C@@H](C)CC [Peptide 3, reference compound] (H-CGLFEAIAGFIENGWEGMIDGWYG-NH2)
pH 5.5
  IC50: > 20 µM
pH 7.4
  IC50: > 20 µM

## CC[C@H](C)[C@H](NC(=O)[C@H](CCC(=O)O)NC(=O)CNC(=O)[C@H](Cc1ccccc1)NC(=O)[C@H](CC(C)C)NC(=O)CNC(=O)[C@@H](N)CS)C(=O)N[C@@H](CCC(=O)O)C(=O)N[C@@H](CCC(=O)O)C(=O)N[C@@H](Cc1ccccc1)C(=O)N[C@H](C(=O)N[C@@H](CCC(=O)O)C(=O)N[C@@H](CCC(=O)O)C(=O)NCC(=O)N[C@@H](Cc1c[nH]c2ccccc12)C(=O)N[C@@H](CCC(=O)O)C(=O)N[C@@H](CC(N)=O)C(=O)N[C@@H](Cc1ccccc1)C(=O)N[C@H](C(=O)N[C@@H](CC(=O)O)C(=O)N[C@@H](Cc1c[nH]c2ccccc12)C(=O)N[C@@H](Cc1c[nH]c2ccccc12)C(=O)N[C@@H](Cc1ccc(O)cc1)C(=O)NCC(=O)N[C@@H](Cc1ccc(O)cc1)C(=O)NCC(=O)N[C@@H](CCCNC(=N)N)C(=O)N[C@@H](CCCCN)C(=O)N[C@@H](CCCCN)C(=O)N[C@@H](CCCNC(=N)N)C(=O)N[C@@H](CCCNC(=N)N)C(=O)N[C@@H](CCC(N)=O)C(=O)N[C@@H](CCCNC(=N)N)C(=O)N[C@@H](CCCNC(=N)N)C(N)=O)[C@@H](C)CC)[C@@H](C)CC [Peptide 66] (H-CGLFGEIEEFIEEGWENFIDWWYGYGRKKRRQRR-NH2)
pH 5.5
  IC50: 4.08 µM
pH 7.4
  IC50: > 20 µM

## CC[C@H](C)[C@H](NC(=O)[C@H](C)NC(=O)[C@H](CCC(=O)O)NC(=O)[C@H](Cc1ccccc1)NC(=O)[C@H](CC(C)C)NC(=O)CNC(=O)[C@@H](N)CS)C(=O)N[C@@H](CCC(=O)O)C(=O)NCC(=O)N[C@@H](Cc1ccccc1)C(=O)N[C@H](C(=O)N[C@@H](CCC(=O)O)C(=O)N[C@@H](CC(N)=O)C(=O)NCC(=O)N[C@@H](Cc1c[nH]c2ccccc12)C(=O)N[C@@H](CCC(=O)O)C(=O)NCC(=O)N[C@@H](CC(C)C)C(=O)N[C@H](C(=O)N[C@@H](CC(=O)O)C(=O)NCC(=O)N[C@@H](Cc1c[nH]c2ccccc12)C(=O)N[C@@H](Cc1ccc(O)cc1)C(=O)NCC(=O)N[C@@H](Cc1ccc(O)cc1)C(=O)NCC(=O)N[C@@H](CCCNC(=N)N)C(=O)N[C@@H](CCCCN)C(=O)N[C@@H](CCCCN)C(=O)N[C@@H](CCCNC(=N)N)C(=O)N[C@@H](CCCNC(=N)N)C(=O)N[C@@H](CCC(N)=O)C(=O)N[C@@H](CCCNC(=N)N)C(=O)N[C@@H](CCCNC(=N)N)C(N)=O)[C@@H](C)CC)[C@@H](C)CC [Peptide 28g]
pH 5.5
  IC50: 0.71 µM
pH 7.4
  IC50: 2.9 µM

## CC[C@H](C)[C@H](NC(=O)[C@H](C)NC(=O)[C@H](CCC(=O)O)NC(=O)[C@H](Cc1ccccc1)NC(=O)[C@H](CC(C)C)NC(=O)CNC(=O)[C@@H](N)CS)C(=O)N[C@@H](CCC(=O)O)C(=O)NCC(=O)N[C@@H](Cc1ccccc1)C(=O)N[C@H](C(=O)N[C@@H](CCC(=O)O)C(=O)N[C@@H](CC(N)=O)C(=O)NCC(=O)N[C@@H](Cc1c[nH]c2ccccc12)C(=O)N[C@@H](CCC(=O)O)C(=O)NCC(=O)N[C@@H](CCSC)C(=O)N[C@H](C(=O)N[C@@H](CC(=O)O)C(=O)NCC(=O)NCC(=O)NCC(=O)NCC(=O)N[C@@H](Cc1ccc(O)cc1)C(=O)NCC(=O)N[C@@H](CCCNC(=N)N)C(=O)N[C@@H](CCCCN)C(=O)N[C@@H](CCCCN)C(=O)N[C@@H](CCCNC(=N)N)C(=O)N[C@@H](CCCNC(=N)N)C(=O)N[C@@H](CCC(N)=O)C(=O)N[C@@H](CCCNC(=N)N)C(=O)N[C@@H](CCCNC(=N)N)C(N)=O)[C@@H](C)CC)[C@@H](C)CC [Peptide 32b] (H-CGLFEAIEGFIENGWEGMIDGGGGYGRKKRRQRR-NH2)
pH 5.5
  IC50: > 10 µM
pH 7.4
  IC50: > 10 µM

## CC[C@H](C)[C@H](NC(=O)[C@H](C)NC(=O)[C@H](CCC(=O)O)NC(=O)[C@H](C)NC(=O)[C@H](CC(C)C)NC(=O)CNC(=O)[C@@H](N)CS)C(=O)N[C@@H](CCC(=O)O)C(=O)NCC(=O)N[C@@H](Cc1ccccc1)C(=O)N[C@H](C(=O)N[C@@H](CCC(=O)O)C(=O)N[C@@H](CC(N)=O)C(=O)NCC(=O)N[C@@H](CC(C)C)C(=O)N[C@@H](CCCCN)C(=O)NCC(=O)N[C@@H](CC(C)C)C(=O)N[C@H](C(=O)N[C@@H](CC(=O)O)C(=O)N[C@@H](Cc1c[nH]c2ccccc12)C(=O)N[C@@H](Cc1c[nH]c2ccccc12)C(=O)N[C@@H](Cc1ccc(O)cc1)C(=O)NCC(=O)N[C@@H](Cc1ccc(O)cc1)C(=O)NCC(=O)N[C@@H](CCCNC(=N)N)C(=O)N[C@@H](CCCCN)C(=O)N[C@@H](CCCCN)C(=O)N[C@@H](CCCNC(=N)N)C(=O)N[C@@H](CCCNC(=N)N)C(=O)N[C@@H](CCC(N)=O)C(=O)N[C@@H](CCCNC(=N)N)C(=O)N[C@@H](CCCNC(=N)N)C(N)=O)[C@@H](C)CC)[C@@H](C)CC [Peptide 58] (H-CGLAEAIEGFIENGLKGLIDWWYGYGRKKRRQRR-NH2)
pH 5.5
  IC50: 0.06 µM
pH 7.4
  IC50: 2 µM

## CC[C@H](C)[C@H](NC(=O)[C@H](CCCCN)NC(=O)[C@@H](NC(=O)[C@H](CCC(N)=O)NC(=O)[C@H](CCCNC(=N)N)NC(=O)[C@@H](N)CS)[C@@H](C)CC)C(=O)N[C@@H](Cc1c[nH]c2ccccc12)C(=O)N[C@@H](Cc1ccccc1)C(=O)N[C@@H](CCC(N)=O)C(=O)N[C@@H](CC(N)=O)C(=O)N[C@@H](CCCNC(=N)N)C(=O)N[C@@H](CCCNC(=N)N)C(=O)N[C@@H](CCSC)C(=O)N[C@@H](CCCCN)C(=O)N[C@@H](Cc1c[nH]c2ccccc12)C(=O)N[C@@H](CCCCN)C(=O)N[C@@H](CCCCN)C(N)=O [Peptide 2, reference compound]
pH 5.5
  IC50: > 20 µM
pH 7.4
  IC50: > 20 µM
